Test results published in ChEMBL document CHEMBL3431459, “Roche carnitine palmitoyltransferase modulator screening data (supplementary data associated with the publication CHEMBL2216752)”.
Values after ≈ are worked out from the molar mass of the structure shown.

Legend:
[1] = biological target: T1, Carnitine O-palmitoyltransferase 1, muscle isoform (Homo sapiens, UniProt Q92523); assay: SUPPLEMENTARY: Inhibition of Carnitine palmitoyltransferase 1, muscle isoform; design: species or system Muscle tissue
T1 sequence (Q92523 whole entry): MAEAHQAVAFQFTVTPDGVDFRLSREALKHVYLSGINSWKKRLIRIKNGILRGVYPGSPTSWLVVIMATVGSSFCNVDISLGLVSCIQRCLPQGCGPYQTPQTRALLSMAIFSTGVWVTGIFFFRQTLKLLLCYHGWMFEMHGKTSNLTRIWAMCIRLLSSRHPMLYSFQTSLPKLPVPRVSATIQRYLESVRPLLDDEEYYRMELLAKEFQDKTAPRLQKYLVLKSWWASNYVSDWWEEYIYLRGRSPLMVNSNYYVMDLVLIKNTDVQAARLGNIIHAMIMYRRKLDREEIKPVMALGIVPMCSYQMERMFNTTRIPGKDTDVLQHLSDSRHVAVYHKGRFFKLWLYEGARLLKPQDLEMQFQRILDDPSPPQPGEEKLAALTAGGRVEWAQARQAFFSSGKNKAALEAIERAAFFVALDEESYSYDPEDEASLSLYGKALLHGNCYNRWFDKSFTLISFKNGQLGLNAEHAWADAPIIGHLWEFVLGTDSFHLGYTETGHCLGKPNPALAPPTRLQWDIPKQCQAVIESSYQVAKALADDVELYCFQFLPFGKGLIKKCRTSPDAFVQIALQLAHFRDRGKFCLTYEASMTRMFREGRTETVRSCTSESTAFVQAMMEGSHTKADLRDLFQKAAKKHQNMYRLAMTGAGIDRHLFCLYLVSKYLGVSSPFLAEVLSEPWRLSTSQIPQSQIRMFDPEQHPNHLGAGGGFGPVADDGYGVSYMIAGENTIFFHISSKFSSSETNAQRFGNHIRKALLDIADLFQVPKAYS

[2] = SUPPLEMENTARY: Lipophilicity (log D) Determination by high-throughput shake-flask; format: physicochemical; conditions: octanol/water
[3] = biological target: T2, Carnitine O-palmitoyltransferase 2, mitochondrial (Rattus norvegicus, UniProt P18886); assay: (§1) SUPPLEMENTARY: Inhibition of Carnitine palmitoyltransferase 2
T2 sequence (P18886 whole entry): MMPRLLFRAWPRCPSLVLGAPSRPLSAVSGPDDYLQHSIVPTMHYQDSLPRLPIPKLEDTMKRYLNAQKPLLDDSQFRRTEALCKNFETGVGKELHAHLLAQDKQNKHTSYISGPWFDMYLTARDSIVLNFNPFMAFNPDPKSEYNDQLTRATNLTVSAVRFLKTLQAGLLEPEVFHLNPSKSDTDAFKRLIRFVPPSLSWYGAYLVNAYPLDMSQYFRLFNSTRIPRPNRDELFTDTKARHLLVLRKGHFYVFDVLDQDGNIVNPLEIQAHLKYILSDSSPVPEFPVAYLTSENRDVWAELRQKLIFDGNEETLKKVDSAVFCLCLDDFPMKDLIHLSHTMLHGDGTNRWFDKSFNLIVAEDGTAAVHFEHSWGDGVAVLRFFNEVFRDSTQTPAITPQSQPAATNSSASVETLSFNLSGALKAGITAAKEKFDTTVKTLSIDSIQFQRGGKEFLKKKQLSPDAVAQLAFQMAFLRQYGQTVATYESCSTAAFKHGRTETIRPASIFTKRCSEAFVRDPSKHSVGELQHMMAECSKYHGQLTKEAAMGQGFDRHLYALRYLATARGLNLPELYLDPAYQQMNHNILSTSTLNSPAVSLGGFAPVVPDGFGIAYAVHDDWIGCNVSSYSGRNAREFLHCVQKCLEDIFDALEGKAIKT

[4] = biological target: T3, Carnitine O-palmitoyltransferase 2, mitochondrial (Homo sapiens, UniProt P23786); assay: as §1
T3 sequence (P23786 whole entry): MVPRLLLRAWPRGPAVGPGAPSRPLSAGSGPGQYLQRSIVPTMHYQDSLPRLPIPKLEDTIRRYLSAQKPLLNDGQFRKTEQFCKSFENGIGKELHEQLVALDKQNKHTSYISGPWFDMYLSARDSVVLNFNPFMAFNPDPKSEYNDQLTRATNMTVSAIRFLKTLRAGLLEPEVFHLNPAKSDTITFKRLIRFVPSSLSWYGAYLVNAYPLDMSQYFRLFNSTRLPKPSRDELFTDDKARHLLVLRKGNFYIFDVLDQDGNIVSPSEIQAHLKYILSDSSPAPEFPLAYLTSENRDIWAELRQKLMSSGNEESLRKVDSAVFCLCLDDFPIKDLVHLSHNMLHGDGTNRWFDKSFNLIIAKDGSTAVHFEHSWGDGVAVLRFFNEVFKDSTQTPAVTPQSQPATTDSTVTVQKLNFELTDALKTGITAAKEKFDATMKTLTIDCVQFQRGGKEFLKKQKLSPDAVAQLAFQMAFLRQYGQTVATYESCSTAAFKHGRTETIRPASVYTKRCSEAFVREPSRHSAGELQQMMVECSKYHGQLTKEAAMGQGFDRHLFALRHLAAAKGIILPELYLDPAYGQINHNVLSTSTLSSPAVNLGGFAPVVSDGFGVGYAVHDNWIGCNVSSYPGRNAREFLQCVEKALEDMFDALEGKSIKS

[5] = SUPPLEMENTARY: PAMPA permeability assay; format: physicochemical; conditions: read-out: Permeability
[6] = SUPPLEMENTARY: Lyophilisation Solubility Assay (LYSA); format: physicochemical; conditions: read-out: Kinetic_solubility
[7] = biological target: T4, Carnitine O-palmitoyltransferase 1, liver isoform (Homo sapiens, UniProt P50416); assay: (§2) SUPPLEMENTARY: Inhibition of Carnitine palmitoyltransferase 1, liver isoform
T4 sequence (P50416 whole entry): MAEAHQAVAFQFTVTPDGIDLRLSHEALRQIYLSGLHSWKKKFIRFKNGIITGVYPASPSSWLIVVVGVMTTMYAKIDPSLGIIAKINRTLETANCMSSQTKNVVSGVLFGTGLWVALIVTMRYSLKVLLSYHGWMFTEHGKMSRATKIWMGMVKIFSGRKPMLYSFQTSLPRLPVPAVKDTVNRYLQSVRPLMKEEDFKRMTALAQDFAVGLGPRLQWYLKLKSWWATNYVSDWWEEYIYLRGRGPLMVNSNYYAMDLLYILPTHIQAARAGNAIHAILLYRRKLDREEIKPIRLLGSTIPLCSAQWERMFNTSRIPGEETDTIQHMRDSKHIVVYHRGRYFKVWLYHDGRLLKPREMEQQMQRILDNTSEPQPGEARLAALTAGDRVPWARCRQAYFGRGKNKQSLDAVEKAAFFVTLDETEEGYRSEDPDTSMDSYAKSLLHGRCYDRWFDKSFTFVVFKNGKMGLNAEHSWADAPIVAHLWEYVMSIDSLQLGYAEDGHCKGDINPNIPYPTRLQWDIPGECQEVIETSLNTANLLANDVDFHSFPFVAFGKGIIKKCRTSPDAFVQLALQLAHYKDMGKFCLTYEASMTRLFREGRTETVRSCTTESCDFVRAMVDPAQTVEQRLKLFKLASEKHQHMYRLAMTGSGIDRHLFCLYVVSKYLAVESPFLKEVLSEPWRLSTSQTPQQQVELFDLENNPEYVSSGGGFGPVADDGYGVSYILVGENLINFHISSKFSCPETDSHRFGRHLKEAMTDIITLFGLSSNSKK

[8] = biological target: T5, Carnitine O-palmitoyltransferase 1, liver isoform (Rattus norvegicus, UniProt P32198); assay: as §2
T5 sequence (P32198 whole entry): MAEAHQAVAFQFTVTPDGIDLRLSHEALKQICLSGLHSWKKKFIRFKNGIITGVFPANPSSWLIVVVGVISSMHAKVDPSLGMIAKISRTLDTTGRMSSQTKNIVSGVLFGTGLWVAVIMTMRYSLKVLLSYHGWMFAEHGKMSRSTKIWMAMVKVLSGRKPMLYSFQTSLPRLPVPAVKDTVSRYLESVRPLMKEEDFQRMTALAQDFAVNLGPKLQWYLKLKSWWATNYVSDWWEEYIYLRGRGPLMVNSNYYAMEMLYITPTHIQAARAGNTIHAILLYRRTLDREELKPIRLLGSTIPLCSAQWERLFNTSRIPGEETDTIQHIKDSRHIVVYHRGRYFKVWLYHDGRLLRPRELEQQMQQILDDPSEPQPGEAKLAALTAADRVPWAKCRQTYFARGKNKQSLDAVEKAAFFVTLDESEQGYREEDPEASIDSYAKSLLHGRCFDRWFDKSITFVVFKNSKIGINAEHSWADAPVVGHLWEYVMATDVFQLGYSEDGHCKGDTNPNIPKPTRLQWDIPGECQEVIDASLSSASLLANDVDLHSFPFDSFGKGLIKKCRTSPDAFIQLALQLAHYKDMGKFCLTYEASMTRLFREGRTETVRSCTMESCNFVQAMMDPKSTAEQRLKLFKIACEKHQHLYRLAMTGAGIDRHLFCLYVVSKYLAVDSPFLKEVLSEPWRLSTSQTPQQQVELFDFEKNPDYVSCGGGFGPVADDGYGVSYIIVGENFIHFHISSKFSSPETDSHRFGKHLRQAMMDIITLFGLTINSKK

Row | Compound | IC50 [1] [µM] | logD [2] | IC50 [3] [µM] | IC50 [4] [µM] | Papp [5] [×10⁻⁶ cm/s] | solubility kinetic [6] [µg/mL] | IC50 [7] [µM] | IC50 [8] [µM]
1 | COc1ccc(Cl)cc1S(=O)(=O)N1COc2ccc(C(=O)Nc3ccc(CC(=O)O)cc3)cc21 | 0.504 | 0.28 | > 100 | > 100 | 3.01 | 46 (≈ 91.5 µM) | 0.159 | 0.165
2 | Nc1ccc(-c2n[nH]c([C@H]3CCCCN3C(=O)COc3ccccc3)n2)cn1 | > 100 | 1.92 | 66 | 45.3 | 3.97 | 111 (≈ 293 µM) | 0.286 | 0.865
3 | O=C(O)Cc1ccc(NC(=O)c2ccc3ccn(S(=O)(=O)c4cccc(Cl)c4)c3c2)cc1 | 1.35 | 1.3 | > 100 | > 100 | 2.24 | 17 (≈ 36.3 µM) | 0.0668 | 0.0862
4 | COc1ccc(Cl)cc1S(=O)(=O)N1COc2ccc(C(=O)Nc3ccn(CC(=O)O)n3)cc21 | 38 | -1.22 | > 100 | > 100 | 0.03 | 521 (≈ 1060 µM) | 0.136 | 0.135
5 | COc1ccc(Cl)cc1S(=O)(=O)N1COc2ccc(C(=O)Nc3ccc(C(=O)O)c(Cl)c3)cc21 | 2.28 | 0.09 | 16 | 9.73 | 1.66 | > 697 | 0.208 | 0.182
6 | Cc1cc(C)cc(S(=O)(=O)N2CCS(=O)(=O)c3ccc(C(=O)Nc4ccc(C(=O)O)cc4)cc32)c1 | 5.3 | 0.55 | 10.5 | 2.8 | 1.95 | 481 (≈ 935 µM) | 0.031 | 0.0181
7 | O=C(COc1ccccc1)N1CCCC[C@@H]1c1noc(-c2cccc(-n3cc[nH]c3=O)c2)n1 | 83.3 | 2.66 | 69.7 | 29.7 | 7.36 | 70 (≈ 157 µM) | 0.0599 | 0.458
8 | Cc1cc(C)cc(S(=O)(=O)N2CC[S+]([O-])c3ccc(C(=O)Nc4ccc(C(=O)O)cc4)cc32)c1 (stereo not given) | 37 | 0.1 | > 100 | 1.86 | 0.49 | 2 (≈ 4.01 µM) | 0.0598 | 0.0575
9 | COc1ccc(Cl)cc1S(=O)(=O)N1C[C@H](C)c2ccc(C(=O)Nc3ccc(C(=O)O)cc3)cc21 | 1.42 | 3.01 | 2.13 | 0.698 | 2.83 | 3 (≈ 5.99 µM) | 0.0757 | 0.0791
10 | COc1ccc(Cl)cc1S(=O)(=O)N1CCOc2ncc(C(=O)Nc3ccc(C(=O)O)cc3)cc21 | > 100 | 0.2 | > 100 | > 100 | 0.74 | 47 (≈ 93.3 µM) | 0.328 | 0.169
